Three compounds from PMC10733307, “Dual species sphingosine-1-phosphate lyase inhibitors to combine antifungal and anti-inflammatory activities in cystic fibrosis: a feasibility study” (Scientific Reports, 2023) can be followed below.

One data set has as its target T1, hSPL (Homo sapiens, UniProt O95470).
T1 construct: gene SGPL1
T1 sequence (O95470 81-568): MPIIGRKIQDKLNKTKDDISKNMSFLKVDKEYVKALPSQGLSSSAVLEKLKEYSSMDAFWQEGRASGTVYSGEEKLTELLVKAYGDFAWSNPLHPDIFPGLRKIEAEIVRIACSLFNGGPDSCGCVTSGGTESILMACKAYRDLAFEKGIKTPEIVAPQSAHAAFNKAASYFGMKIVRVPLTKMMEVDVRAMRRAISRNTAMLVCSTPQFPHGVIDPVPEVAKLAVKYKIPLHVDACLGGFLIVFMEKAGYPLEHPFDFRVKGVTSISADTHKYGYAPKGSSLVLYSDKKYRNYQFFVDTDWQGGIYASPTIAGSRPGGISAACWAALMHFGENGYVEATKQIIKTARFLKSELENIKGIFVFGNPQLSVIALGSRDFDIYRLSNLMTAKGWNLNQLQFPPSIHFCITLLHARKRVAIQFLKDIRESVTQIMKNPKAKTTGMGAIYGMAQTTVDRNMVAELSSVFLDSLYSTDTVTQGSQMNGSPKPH
Nature of the data set: fluorimetric lyase assay, global fit to competitive inhibition model. The class given is biochemical. The source says:
fluorimetric lyase assay, global fit to competitive inhibition model on hSPL | From a global fitting of the data we estimated their KI values

Data set [1] concerns the target T2, AfuSPL (Aspergillus fumigatus, UniProt Q4WPU3).
T2 construct: gene AFUA_4G10470; cytosolic catalytic domain, Δ1-81, C-terminal His tag, pET28, E. coli BL21 with GroEL/GroES (pGro7), about 50 kDa subunit, dimer
T2 sequence (Q4WPU3 82-572): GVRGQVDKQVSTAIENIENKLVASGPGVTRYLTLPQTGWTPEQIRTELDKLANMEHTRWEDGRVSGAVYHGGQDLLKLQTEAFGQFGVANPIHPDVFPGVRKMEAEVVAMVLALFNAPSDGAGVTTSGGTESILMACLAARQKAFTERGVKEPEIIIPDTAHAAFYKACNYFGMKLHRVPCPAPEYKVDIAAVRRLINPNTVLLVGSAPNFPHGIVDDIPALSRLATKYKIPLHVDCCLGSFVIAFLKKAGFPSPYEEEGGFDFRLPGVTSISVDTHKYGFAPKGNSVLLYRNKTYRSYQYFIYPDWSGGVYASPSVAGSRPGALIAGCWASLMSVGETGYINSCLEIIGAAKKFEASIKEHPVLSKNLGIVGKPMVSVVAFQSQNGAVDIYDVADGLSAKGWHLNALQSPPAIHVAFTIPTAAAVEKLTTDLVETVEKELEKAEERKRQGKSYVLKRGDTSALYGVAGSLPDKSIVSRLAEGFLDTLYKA
The data set is described as above. Format: biochemical. An excerpt: fluorimetric lyase assay, global fit to competitive inhibition model on AfuSPL | From a global fitting of the data we estimated their KI values

In data set [2] the target is T2, AfuSPL. Nature of the data set: fluorimetric lyase assay. The class given is biochemical. To be noted: 1 mM inhibitor, fluorogenic S1P substrate, pH 7.4, 37 °C.
The subject of data set [3] is N[C@@H](COP(=O)(O)O)[C@H](O)CCOc1ccc2ccc(=O)oc2c1. Nature of the data set: purified protein. To be noted: 100 mM Hepes pH 7.4, 0.1 mM EDTA, 0.05% Triton X-100, 100 μM PLP, 37 °C.

Take `CCCOC(=O)c1c(NC(=O)CCCC(=O)Nc2sc3c(c2C(=O)OCCC)CCCCC3)sc2c1CCCCC2` [C17]: the Ki (usually a measure of affinity in units of concentration, obtained from inhibition or displacement) was found to be 240 ± 50 µM at hSPL and 270 ± 80 µM at AfuSPL [1]. In the case of `C[C@@H]1CN(c2nnc(Cc3ccccc3)c3ccc(Cl)cc23)CCN1c1ccc(C#N)cn1` [30J, 6-[(2R)-4-(4-benzyl-7-chlorophthalazin-1-yl)-2-methylpiperazin-1-yl]pyridine-3-carbonitrile], at AfuSPL [2], the “% inhibition at 1 mM” value is listed as “without any significant effect on the activity of AfuSPL”. As to AfuSPL (Aspergillus fumigatus Af293), in data set [3], the Km (usually the substrate concentration at which the rate is half of its maximum) amounted to 3.1 ± 0.4 mM; the kcat – broadly, the number of substrate molecules converted per active site and unit of time at saturation – was determined as 0.103 ± 0.007 s⁻¹.
